Reference: US20230191096A1, “PHARMACEUTICAL COMPOSITION FOR USE IN TREATING SUBJECT IN HYPOXIC STATE DUE TO RESPIRATORY FAILURE, ETC” (National University Corporation Tokyo Medical and Dental …, priority 2020, published 2023)

Tests used:
C57BL6J mice = experiment: Intrarectal oxygenated perflubron in mice having respiratory failure, SpO2 monitor; type: in vivo; settings: 15% hypoxic condition; 40 mL/kg into the rectum
Description: Experiment was carried out to administer oxygenated perflubron to mice having respiratory failure. PFB manufactured by OriGen Biomedical (Perflubron, product name: Liquivent) was oxygenated by oxygen bubbling. Male C57BL6J mice (male) ranging from 20 to 30 g were grouped into two groups: control group (physiological saline administration group); and I-EVA group (using oxygenated perflubron). The mice of the control group were each anesthetized by intraperitoneal administration of ketamine (80 to 100 mg/kg) and xylazine (10 mg/kg) and subjected to inhalation under 15% hypoxic condition, and, when SpO2 just exceeded 70%, perflubron was administered into the rectum at 40 mL/kg, and effects on respiratory failure were validated by using an SpO2 monitor.

[1] = Oxygen and carbon dioxide partial pressures of the PFB before bubbling, after bubbling and after intrarectal administration; design: species or system mice; settings: after oxygen bubbling vs before
mice = experiment: Oral administration of PFD subjected to oxygen bubbling, left ventricular blood gas; type: in vivo
Description: PFD subjected to oxygen bubbling was administered to mice through oral administration, and the effects on blood oxygen partial pressure and carbon dioxide partial pressure were examined. As a negative control, a mouse group with oral administration of physiological saline ([…]; n=3) was used. […] In the negative control group, in contrast to that, there were smaller amounts of contents in the intestinal tract than in the bubbled-PFD oral administration group (FIG. 14A). An attempt was made to recover contents by inserting a syringe into the intestinal tract. In the attempt, transparent liquid suspected to be PFD was successfully recovered in the syringe for the bubbled-PFD oral administration group (FIG. 14B). For the negative control group, by contrast, such liquid was not recovered, and nothing recovered was left in the syringe. […] One hour after administration, tracheostomy was performed, and ventilation was performed with room air under management with a ventilator. Thoracotomy was performed and blood was collected from the heart, and the oxygen partial pressure and carbon dioxide partial pressure in the blood obtained were measured by iSTAT.

[2] = Oxygen partial pressure of PFC bubbled with pure oxygen; type: physicochemical
Description: (§1) With use of a liquid perfluorocarbon (PFC)^12-16, an intestinal gas ventilation (ILV) system was developed. Mice were randomly assigned to two groups: sham group (group 9, n=10); and intestinal gas ventilation group (group 12, n=12). For the intestinal gas ventilation (ILV), a PFC (octadecafluorodecahydronaphthalene, Wako Pure Chemical Industries, Ltd., Osaka, Japan) was bubbled with pure oxygen for 45 minutes to dissolve oxygen therein.
First, an O2-containing PFC was prepared (by O2 bubbling at 1 L/min over 45 minutes; FIG. 3A). For mice (groups 12, 18, 19; hereinafter, referred to as intestinal gas ventilation (ILV) groups), the liquid of PFC was then infused into the intestinal tract (i.e., the rectum) in a total volume of 1 mL/mouse. The average oxygen pressure in the PFC after O2 bubbling for 45 minutes was 438±19.9 mmHg (n=3, FIG. 4E). Effects on the treated mice were evaluated by mobility assay. In summary, the walking distances of the mice were calculated to find statistical increase for the group with O2—PFC liquid infusion therapy after inhalation of hypoxic gas (the ILV group with administration of the O2-containing PFC) as compared with the control group (FiO2 0.10, control group, 0.408±1.02 cm per 20 seconds; FiO2 0.10, treated group, 3.34±4.05 cm, p<0.0001, FIG. 3B).

hypoxic pigs = experiment: Intrarectal oxygenated PFC in hypoxic pigs; type: in vivo; settings: intrarectal administration
LEWIS rats = experiment: Intrarectal oxygenated perfluorodecalin, blood gas (FIG. 9); type: in vivo; settings: for blood oxygen partial pressure vs physiological saline: intrarectal 20 mL/kg
Description: As an experiment for reproduction, LEWIS rats (male) ranging from 250 to 350 g were grouped into three groups: control group; I-EVA group (using research-grade perfluorodecalin (PFD) from Wako Pure Chemical Industries, Ltd.); and I-EVA group (using clinical-grade perfluorodecalin from F2C). Perfluorodecalin bubbled with pure oxygen gas was administered into the rectum of each rat at 20 mL/kg, and 15 minutes and 120 minutes thereafter the arterial blood was collected under anesthesia and 21% oxygen inhalation, and the oxygen partial pressure was measured.
Next, C57BL6J mice ranging from 20 to 30 g were grouped into two group: control group (physiological saline administration group); and I-EVA group (using perfluorodecalin from F2C with oxygenation). The mice of the control group were each anesthetized by intraperitoneal administration of ketamine (80 to 100 mg/kg) and xylazine (10 mg/kg) and subjected to inhalation under 15% hypoxic condition, and, when SpO2 just exceeded 70%, oxygenated perfluorodecalin was administered into the rectum at 40 mL/kg, and effects on respiratory failure were validated by using an SpO2 monitor. After the completion of the experiment, the perfluorodecalin enterally administered was recovered, and the carbon dioxide concentration was measured to compare with that measured before the operation.

[3] = Systemic toxicity after six cycles of administration of PFD, analysis of serum; type: in vivo; settings: for ALP / AST / Albumin / CK / Calcium / Chloride / Creatinine / Erythrocytes / Glucose / Hematocrit / Hemoglobin / Leukocytes / Platelets / Pottasium / Sodium / Total cholesterol / Tri-glyceride / Urea nitrogen / ALT: 6 doses (time/day), blood collection Day 2; for ALT: *p < 0.05
Description: (§2) The blood PDF concentration 0.5 hours, 2 hours, and 24 hours after administration of perfluorodecalin (PFD) was measured by GC/MS/MS at times (n=6). […] Systemic toxicity after six cycles of administration of PDF was examined.

[4] = test system: acute respiratory distress syndrome (ARDS) pig model; experiment: Intrarectal oxygenated PFC in acute respiratory distress syndrome (ARDS) pig model; type: in vivo; settings: ARDS pigs
Description: Furthermore, an acute respiratory distress syndrome (ARDS) pig model was produced, and improvement of oxygen partial pressure by intrarectal administration of oxygenated PFC was examined. First, micromini pigs and pork pigs (female) were used to produce an ARDS model. Physiological saline was directly administered into the airway at 40 mL/kg. […] Histological examination of lung tissue confirmed impairment of alveolar walls such as the formation of hyaline membranes, the formation of residual protein layers in alveolar spaces, and septal hypertrophy. […] Then, the thus-produced ARDS pigs were each subjected to laparotomy by median incision, and a drain for administration of perfluorodecalin was placed at a depth of 40 cm from the anus, and an […] DennisTM Colorectal Tube for recovery of perfluorodecalin was placed in the anus side.

[5] = Blood PFD concentration by GC/MS/MS; type: in vivo; settings: 0.5 hours, 2 hours, and 24 hours after administration, n=6
Description: as §2

C57BL/6J mice [6] = experiment: Behavior analysis (walking distance) of ILV-treated hypoxic mice; type: in vivo; settings: per 20 seconds; FiO2 0.10; 120 minutes after injection to the intestinal tract
Description: Behavioral improvement in ILV-treated hypoxic mice was analyzed. The mobilities of mice were monitored for a set of two parameters from a fitted ellipse (centroidal positions (x, y)). With use of these parameters, walking distance was calculated every 20 seconds for mice of a control group and a treated group (both n=3). […] For the treated group, an O2-labeled perfluorocarbon was used as described above, and inhalation of hypoxic gas (FiO2 0.10) was performed 120 minutes after the injection to the intestinal tract (FIG. 4A).

C57BL/6J mice [7] = experiment: Intestinal liquid ventilation (ILV) with oxygenated PFC, oxygen partial pressure in inferior vena cava; type: in vivo; settings: 120 min after 1 mL PFC via the intestinal tract
Description: as §1

C57BL/6J mice [8] = experiment: ILV in respiratory failure model, oxygen partial pressure in left ventricle (FiO2 0.10); type: in vivo
Description: In ILV experiment, mice were randomly assigned to two groups: sham group (group 13, n=4); and ILV groups (group 18, n=4; group 19, n=4). The PFC was given to each mouse via the intestinal tract in the above-described manner, and 60 minutes and 120 minutes thereafter the oxygen partial pressure in the left ventricle of the heart under inhalation of hypoxic gas was analyzed (FiO2 0.10, inhalation time: 10 minutes).

[9] = oral 250 μL/mouse, heart blood one hour after administration, room air ventilation
[10] = 120 minutes after administration

FC(F)(F)C(F)(F)C(F)(F)C(F)(F)C(F)(F)C(F)(F)C(F)(F)C(F)(F)Br [PFB, 1-bromo-heptadecafluorooctane]
SpO2 (C57BL6J mice): significant recovery of SpO2
oxygen partial pressure of the PFB [1]: enhanced oxygen partial pressure

FC1(F)C(F)(F)C(F)(F)C2(F)C(F)(F)C(F)(F)C(F)(F)C(F)(F)C2(F)C1(F)F (stereo not shown) [PFD, octadecafluorodecahydronaphthalene]
gastrointestinal transit after oral administration (mice; oral 250 μL/mouse to the stomach by probe): passed through the stomach and arrived at the intestine
blood carbon dioxide partial pressure vs negative control group (mice; [9]): tendency to exhibit decreased blood carbon dioxide partial pressure
blood oxygen partial pressure vs negative control group (mice; [9]): tendency to exhibit increased blood oxygen partial pressure
average oxygen pressure in the PFC ([2]; after O2 bubbling for 45 minutes (1 L/min), n=3): 438±19.9 mmHg
average pressure of oxygen in the perfluorocarbon ([2]; bubbled with pure oxygen, after 120 minutes): 438±19.9 mmHg
blood oxygen partial pressure (hypoxic pigs): improvement in blood oxygen partial pressure
carbon dioxide partial pressure (hypoxic pigs): decrease in carbon dioxide partial pressure
oxygen saturation (hypoxic pigs): improved the oxygen saturation
blood carbon dioxide partial pressure vs physiological saline (LEWIS rats; [10]): significantly decreasing blood carbon dioxide partial pressure
blood oxygen partial pressure vs physiological saline (LEWIS rats; 15 minutes after administration): enhancing blood oxygen partial pressure
blood oxygen partial pressure vs physiological saline (LEWIS rats; [10]): enhancing blood oxygen partial pressure
ALP ([3]; PFD dose volume 1 ml/head): 470 ± 112 U/L
AST ([3]; PFD dose volume 1 ml/head): 68 ± 2 U/L
Albumin ([3]; PFD dose volume 1 ml/head): 2.6 ± 0.1 g/dL
CK ([3]; PFD dose volume 1 ml/head): 170 ± 22 U/L
Calcium ([3]; PFD dose volume 1 ml/head): 10.1 ± 0.1 mg/dL
Chloride ([3]; PFD dose volume 1 ml/head): 103 ± 1 mmol/L
Creatinine ([3]; PFD dose volume 1 ml/head): 0.2 mg/dL
Erythrocytes ([3]; PFD dose volume 1 ml/head): 752 ± 24 ×10^4/μl
Glucose ([3]; PFD dose volume 1 ml/head): 123 ± 22 mg/dL
Hematocrit ([3]; PFD dose volume 1 ml/head): 45.0 ± 1.1%
Hemoglobin ([3]; PFD dose volume 1 ml/head): 15.1 ± 0.7 g/dL
Leukocytes ([3]; PFD dose volume 1 ml/head): 102 ± 18 10^2/μL
Platelets ([3]; PFD dose volume 1 ml/head): 112 ± 11.5 10^4/µL
Pottasium ([3]; PFD dose volume 1 ml/head): 3.6 ± 0.2 mmol/L
Sodium ([3]; PFD dose volume 1 ml/head): 143 mmol/L
Total cholesterol ([3]; PFD dose volume 1 ml/head): 75 ± 20 mg/dL
Tri-glyceride ([3]; PFD dose volume 1 ml/head): 21 ± 7 mg/dL
Urea nitrogen ([3]; PFD dose volume 1 ml/head): 14 ± 2 mg/dL
ALT ([3]; PFD dose volume 1 ml/head): 24 ± 3* U/L
ALP ([3]; PFD dose volume 1.5 ml/head): 540 ± 64 U/L
AST ([3]; PFD dose volume 1.5 ml/head): 72 ± 5 U/L
Albumin ([3]; PFD dose volume 1.5 ml/head): 2.6 ± 0.1 g/dL
CK ([3]; PFD dose volume 1.5 ml/head): 196 ± 12 U/L
Calcium ([3]; PFD dose volume 1.5 ml/head): 9.9 ± 0.3 mg/dL
Chloride ([3]; PFD dose volume 1.5 ml/head): 105 ± 1 mmol/L
Creatinine ([3]; PFD dose volume 1.5 ml/head): 0.3 ± 0.1 mg/dL
Erythrocytes ([3]; PFD dose volume 1.5 ml/head): 791 ± 24 ×10^4/μl
Glucose ([3]; PFD dose volume 1.5 ml/head): 123 ± 18 mg/dL
Hematocrit ([3]; PFD dose volume 1.5 ml/head): 45.6 ± 1.4%
Hemoglobin ([3]; PFD dose volume 1.5 ml/head): 15.2 ± 0.6 g/dL
Leukocytes ([3]; PFD dose volume 1.5 ml/head): 88 ± 5 10^2/μL
Platelets ([3]; PFD dose volume 1.5 ml/head): 124 ± 20.1 10^4/µL
Pottasium ([3]; PFD dose volume 1.5 ml/head): 3.6 ± 0.2 mmol/L
Sodium ([3]; PFD dose volume 1.5 ml/head): 143 ± 1 mmol/L
Total cholesterol ([3]; PFD dose volume 1.5 ml/head): 71 ± 22 mg/dL
Tri-glyceride ([3]; PFD dose volume 1.5 ml/head): 20 ± 4 mg/dL
Urea nitrogen ([3]; PFD dose volume 1.5 ml/head): 14 ± 2 mg/dL
ALT ([3]; PFD dose volume 1.5 ml/head): 25 ± 1* U/L
toxicity due to intrarectal administration ([3]; six cycles of administration, serum analysis): no particular toxicity
acidosis [4]: did not exhibit marked acidosis
oxygen partial pressure, improvement ([4]; oxygenated perfluorodecalin repeatedly at 20 mL/kg intrarectal): about 300 mmHg
blood PFD concentration (detection limit) [5]: < 1 µg/mL
walking distance (C57BL/6J mice [6]): 3.34±4.05 cm
oxygen partial pressure in the inferior vena cava, pressure difference ILV group vs control group (C57BL/6J mice [7]): 9.40±3.65 mmHg
ratio of arterial oxygen partial pressure between the control group and the treated group (C57BL/6J mice [8]; FiO2 0.10): approximately 1.6
ventricular (arterial) oxygen partial pressure, PaO2 (C57BL/6J mice [8]; ILV group, hypoxic environment (FiO2 0.10)): 63.8±5.59 mmHg
oxygen partial pressure in the left ventricle of the heart vs control group (C57BL/6J mice [8]; hypoxic environment (FiO2 0.10), 60 minutes after ILV): significantly higher
oxygen partial pressure in the left ventricle of the heart, pressure difference ILV group vs control group (C57BL/6J mice [8]; hypoxic environment (FiO2 0.10), after 120 minutes): 23.8±3.11 mmHg
